pIC50: −log10 of the molar value.
What follows are compounds tested against T1, human CRHR2-alpha (Homo sapiens, UniProt Q13324) (assay: cAMP functional assay for human CRHR2 (LANCE Ultra cAMP, TR-FRET)). Conditions: CHO-K1 cells expressing human CRHR2-alpha, agonist human urocortin2 at EC80, cAMP; read-out: IC50 against CRHR2.
T1 sequence (Q13324 1-411): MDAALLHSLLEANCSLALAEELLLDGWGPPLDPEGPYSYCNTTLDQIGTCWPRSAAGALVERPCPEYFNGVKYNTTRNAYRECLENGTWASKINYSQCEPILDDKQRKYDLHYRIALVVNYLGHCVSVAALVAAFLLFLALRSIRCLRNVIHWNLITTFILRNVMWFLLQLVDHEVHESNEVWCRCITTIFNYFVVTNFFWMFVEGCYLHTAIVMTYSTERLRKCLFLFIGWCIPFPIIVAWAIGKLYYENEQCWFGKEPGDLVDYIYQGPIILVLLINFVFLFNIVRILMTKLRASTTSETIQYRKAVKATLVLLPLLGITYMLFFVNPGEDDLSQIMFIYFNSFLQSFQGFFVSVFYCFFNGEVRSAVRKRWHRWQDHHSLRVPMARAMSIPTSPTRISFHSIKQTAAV
Format: cell-based
Outline: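 CHO-K1 cells stably expressing each receptor, serum-starved and cryopreserved, were preincubated with compound 30 min at 25° C in HBSS buffer with 0.5 mM IBMX, pH 7.4, then stimulated 30 min with EC80 agonist (urocortin2 for CRHR2, CRF for CRHR1). cAMP read by TR-FRET; IC50 from percent-inhibition curves.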

| SMILES | pIC50 |
| --- | --- |
| COc1ccc(-n2c(=O)n(C[C@H]3CC[C@H](NC(=O)c4c5c(nn4C)CCCC5)CC3)c3ccccc32)cn1 [Example 221, N-((1r,4r)-4-((3-(6-methoxy-pyridin-3-yl)-2-oxo-2,3-dihydro-1H-benzo[d]imidazol-1-yl)methyl)cyclohexyl)-2-methyl-4,5,6,7-tetrahydro-2H-indazole-3-carboxamide] | > 6.52 |
| Cc1ncc(Cl)cc1C(=O)N[C@H]1CC[C@H](Cn2c(=O)n(-c3ccc4c(c3)nc(C)n4C)c3ccccc32)CC1 [Example 168, 5-chloro-N-((1r,4r)-4-((1′,2′-dimethyl-2-oxo-1′H-[1,5′-bibenzo[d]imidazol]-3(2H)-yl)methyl)cyclohexyl)-2-methylnicotinamide] | > 6.52 |
| Cc1ncc(Cl)cc1C(=O)N[C@H]1CC[C@H](Cn2c(=O)n(-c3ccnc(N4CCOCC4)c3)c3ccccc32)CC1 [Example 519, 5-chloro-2-methyl-N-((1r,4r)-4-((3-(2-morpholinopyridin-4-yl)-2-oxo-2,3-dihydro-1H-benzo[d]imidazol-1-yl)methyl)cyclohexyl)nicotinamide] | > 6.52 |
| Cc1ncc(Cl)cc1C(=O)N[C@H]1CC[C@H](Cn2c(=O)n(-c3ccnc(-c4ccn(C)n4)c3)c3ccccc32)CC1 [Example 655, 5-chloro-2-methyl-N-((1r,4r)-4-((3-(2-(1-methyl-1H-pyrazol-3-yl)pyridin-4-yl)-2-oxo-2,3-dihydro-1H-benzo[d]imidazol-1-yl)methyl)cyclohexyl)nicotinamide] | > 6.52 |
| Cc1cc(C#N)c(-n2c(=O)n(C[C@H]3CC[C@H](NC(=O)c4cc(Cl)cnc4C)CC3)c3ccccc32)cn1 [Example 308, 5-chloro-N-((1r,4r)-4-((3-(4-cyano-6-methylpyridin-3-yl)-2-oxo-2,3-dihydro-1H-benzo[d]imidazol-1-yl)methyl)cyclohexyl)-2-methylnicotinamide] | > 6.52 |
| Cc1ncc(Cl)cc1C(=O)N[C@H]1CC[C@H](Cn2c(=O)n(-c3cccc(-c4ccn(C)n4)c3)c3ccccc32)CC1 [Example 651, 5-chloro-2-methyl-N-((1r,4r)-4-((3-(3-(1-methyl-1H-pyrazol-3-yl)phenyl)-2-oxo-2,3-dihydro-1H-benzo [d]imidazol-1-yl)methyl)cyclohexyl)nicotinamide] | > 6.52 |
| CNc1cncc(-n2c(=O)n(C[C@H]3CC[C@H](NC(=O)c4cc(Cl)cnc4C)CC3)c3ccccc32)c1 [Example 487, 5-chloro-2-methyl-N-((1r,4r)-4-((3-(5-(methylamino)pyridin-3-yl)-2-oxo-2,3-dihydro-1H-benzo[d]imidazol-1-yl)methyl)cyclohexyl)nicotinamide] | > 6.52 |
| Cc1ncc(Cl)cc1C(=O)N[C@H]1CC[C@H](Cn2c(=O)n(-c3ccc(-c4c[nH]nn4)cc3)c3ccccc32)CC1 [Example 633, N-((1r,4r)-4-((3-(4-(1H-1,2,3-triazol-4-yl)phenyl)-2-oxo-2,3-dihydro-1H-benzo[d]imidazol-1-yl)methyl)cyclohexyl)-5-chloro-2-methylnicotinamide] | > 6.52 |
| Cc1ncc(Cl)cc1C(=O)N[C@H]1CC[C@H](Cn2c(=O)n(-c3ccc4c(C)noc4c3)c3ccccc32)CC1 [Example 171, 5-chloro-2-methyl-N-((1r,4r)-4-((3-(3-methylbenzo[d]isoxazol-6-yl)-2-oxo-2,3-dihydro-1H-benzo[d]imidazol-1-yl)methyl)cyclo-hexyl)nicotinamide] | > 6.52 |

Second part, the compound after the results:

| pIC50 | SMILES |
| --- | --- |
| > 6.52 | O=C(N[C@H]1CC[C@H](Cn2c(=O)n(-c3cncc(N4CCOCC4)c3)c3ccccc32)CC1)c1cc(Cl)cnc1C(F)F [Example 476, 5-chloro-2-(difluoromethyl)-N-((1r,4r)-4-((3-(5-morpholino-pyridin-3-yl)-2-oxo-2,3-dihydro-1H-benzo[d]imidazol-1-yl)methyl)cyclohexyl) nicotinamide] |
| > 6.52 | O=C(N[C@H]1CC[C@H](Cn2c(=O)n(-c3cnc(OCCO)c(F)c3)c3ccccc32)CC1)c1cc(Cl)cnc1C(F)F [Example 638, 5-chloro-2-(difluoromethyl)-N-((1r,4r)-4-((3-(5-fluoro-6-(2-hydroxyethoxy)pyridin-3-yl)-2-oxo-2,3-dihydro-1H-benzo[d]imidazol-1-yl)methyl)cyclohexyl)nicotinamide] |
| > 6.52 | CC(C)(O)COc1ccc(-n2c(=O)n(C[C@H]3CC[C@H](NC(=O)c4cc(Cl)cnc4C(F)F)CC3)c3ccccc32)cn1 [Example 429, 5-chloro-2-(difluoromethyl)-N-((1r,4r)-4-((3-(6-(2-hydroxy-2-methylpropoxy)pyridin-3-yl)-2-oxo-2,3-dihydro-1H-benzo[d]imidazol-1-yl)methyl)cyclohexyl) nicotinamide] |
| > 6.52 | O=C(N[C@H]1CC[C@H](Cn2c(=O)n(-c3ccnc(N4CCCC4=O)c3)c3ccccc32)CC1)c1cc(Cl)cnc1C(F)F [Example 706, 5-chloro-2-(difluoromethyl)-N-((1r,4r)-4-((2-oxo-3-(2-(2-oxopyrrolidin-1-yl)pyridin-4-yl)-2,3-dihydro-1H-benzo[d]imidazol-1-yl)methyl)cyclo-hexyl)nicotinamide] |
| > 6.52 | CN1CCN(c2cc(-n3c(=O)n(C[C@H]4CC[C@H](NC(=O)c5cc(Cl)cnc5C(F)F)CC4)c4ccccc43)ccn2)C1=O [Example 707, 5-chloro-2-(difluoromethyl)-N-((1r,4r)-4-((3-(2-(3-methyl-2-oxoimidazolidin-1-yl)pyridin-4-yl)-2-oxo-2,3-dihydro-1H-benzo[d]imidazol-1-yl)methyl)cyclohexyl) nicotinamide] |
| > 6.52 | Cc1ncc(Cl)cc1C(=O)N[C@H]1CC[C@H](Cn2c(=O)n(-c3ccc(NC4CCC4)nc3)c3ccccc32)CC1 [Example 125, 5-chloro-N-((1r,4r)-4-((3-(6-(cyclobutylamino)pyridin-3-yl)-2-oxo-2,3-dihydro-1H-benzo[d]imidazol-1-yl)methyl)cyclo-hexyl)-2-methylnicotinamide] |
| > 6.52 | Cc1ncc(Cl)cc1C(=O)N[C@H]1CC[C@H](Cn2c(=O)n(-c3ccc4ccncc4c3)c3ccccc32)CC1 [Example 396, 5-chloro-N-((1r,4r)-4-((3-(isoquinolin-7-yl)-2-oxo-2,3-dihydro-1H-benzo[d]imidazol-1-yl)methyl)cyclohexyl)-2-methyl-nicotinamide] |
| > 6.52 | O=C(N[C@H]1CC[C@H](Cn2c(=O)n(-c3ccc(CO)cc3)c3ccccc32)CC1)c1cc(Cl)cnc1C(F)F [Example 384, 5-chloro-2-(difluoromethyl)-N-((1r,4r)-4-((3-(4-(hydroxy-methyl)phenyl)-2-oxo-2,3-dihydro-1H-benzo[d]imidazol-1-yl)methyl)cyclohexyl) nicotinamide] |
| > 6.52 | Cc1ncc(Cl)cc1C(=O)N[C@H]1CC[C@H](Cn2c(=O)n(-c3ccc(OC(F)F)nc3)c3ccccc32)CC1 [Example 97, 5-chloro-N-((1r,4r)-4-((3-(6-(difluoromethoxy)pyridin-3-yl)-2-oxo-2,3-dihydro-1H-benzo[d]imidazol-1-yl)methyl)cyclohexyl)-2-methylnicotinamide] |
| > 6.52 | C[C@H](O)COc1ccc(-n2c(=O)n(C[C@H]3CC[C@H](NC(=O)c4cc(Cl)cnc4C(F)F)CC3)c3ccccc32)cn1 [Example 440, 5-chloro-2-(difluoromethyl)-N-((1S,4r)-4-((3-(6-((S)-2-hydroxypropoxy)pyridin-3-yl)-2-oxo-2,3-dihydro-1H-benzo[d]imidazol-1-yl)methyl)cyclohexyl)nicotinamide] |
